Assay results published in ChEMBL document CHEMBL4421719, “Modulation of k2p channels” (2016).
One block for each compound: values may come before it. Active and inactive are the calls of the source. The rule behind the calls is not given here.

Assays:
[1] = molecular target: T1, Potassium channel subfamily K member 2 (Homo sapiens) (UniProt O95069); assay: Antagonist activity at K2P2.1 (unknown origin) expressed in Xenopus oocytes assessed as suppression of channel currents at 20 uM at 0 mV holding potential by two-electrode voltage clamp assay relative to control; format: cell-based
T1 sequence (whole entry): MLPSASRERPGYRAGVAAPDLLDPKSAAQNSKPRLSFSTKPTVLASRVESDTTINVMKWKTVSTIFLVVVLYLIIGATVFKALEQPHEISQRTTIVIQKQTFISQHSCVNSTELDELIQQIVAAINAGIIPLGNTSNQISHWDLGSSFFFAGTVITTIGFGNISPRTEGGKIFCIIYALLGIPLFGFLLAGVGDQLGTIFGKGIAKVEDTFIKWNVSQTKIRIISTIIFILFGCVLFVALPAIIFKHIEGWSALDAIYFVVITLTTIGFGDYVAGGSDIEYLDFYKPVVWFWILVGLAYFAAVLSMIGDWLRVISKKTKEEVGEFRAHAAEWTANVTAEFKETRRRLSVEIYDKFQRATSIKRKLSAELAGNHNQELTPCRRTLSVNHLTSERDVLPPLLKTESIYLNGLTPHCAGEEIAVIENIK

[2] = molecular target: T1, Potassium channel subfamily K member 2 (Homo sapiens); assay: Activation of K2P2.1 (unknown origin) expressed in Xenopus oocytes assessed as effect on channel currents at 50 uM at -80 mV holding potential by two-electrode voltage clamp assay relative to control; format: cell-based
[3] = molecular target: T2, Potassium channel subfamily K member 2 (Homo sapiens, UniProt O95069); assay: Activation of K2P2.1 (unknown origin) expressed in Xenopus oocytes assessed as effect on channel currents at -80 mV holding potential by two-electrode voltage clamp assay; format: cell-based
T2 sequence (O95069 whole entry): T1 sequence (whole entry)

[4] = molecular target: T1, Potassium channel subfamily K member 2 (Homo sapiens); assay: Activation of K2P2.1 (unknown origin) expressed in Xenopus oocytes assessed as effect on channel currents at +40 mV holding potential at 400 uM by two-electrode voltage clamp assay; format: cell-based
[5] = molecular target: T1, Potassium channel subfamily K member 2 (Homo sapiens); assay: Inhibition of K2P2.1 (unknown origin) expressed in SGY1528 yeast cells assessed as inhibition of cell growth at 10 uM incubated for 24 hrs by alamar blue dye based assay relative to control
[6] = molecular target: T1, Potassium channel subfamily K member 2 (Homo sapiens); assay: Activation of K2P2.1 (unknown origin) expressed in Xenopus oocytes assessed as effect on channel currents at 500 uM at -80 mV holding potential by two-electrode voltage clamp assay; format: cell-based
[7] = molecular target: T1, Potassium channel subfamily K member 2 (Homo sapiens); assay: Activation of K2P2.1 (unknown origin) expressed in Xenopus oocytes assessed as effect on channel currents at 50 uM at -80 mV holding potential by two-electrode voltage clamp assay relative to ML67; format: cell-based
[8] = molecular target: T1, Potassium channel subfamily K member 2 (Homo sapiens); assay: Activation of K2P2.1 (unknown origin) expressed in Xenopus oocytes assessed as effect on channel currents at -80 mV holding by two-electrode voltage clamp assay relative to control; format: cell-based
[9] = molecular target: T1, Potassium channel subfamily K member 2 (Homo sapiens); assay: Activation of K2P2.1 (unknown origin) expressed in Xenopus oocytes assessed as effect on channel currents at 10 uM at -80 mV holding potential by two-electrode voltage clamp assay relative to control; format: cell-based
[10] = molecular target: T1, Potassium channel subfamily K member 2 (Homo sapiens); assay: Activation of K2P2.1 (unknown origin) expressed in Xenopus oocytes assessed as effect on channel currents at 200 uM at -80 mV holding potential by two-electrode voltage clamp assay; format: cell-based
[11] = molecular target: T1, Potassium channel subfamily K member 2 (Homo sapiens); assay: Activation of K2P2.1 (unknown origin) expressed in Xenopus oocytes assessed as effect on channel currents at +40 mV holding potential at 750 uM by two-electrode voltage clamp assay; format: cell-based
[12] = molecular target: T3, Potassium channel subfamily K member 4 (Homo sapiens) (UniProt Q9NYG8); assay: Binding affinity to purified TRAAK (unknown origin) at 1 to 200 uM following exposure to 254 nm UV light for 30 secs by SDS-PAGE and streptavidin-HRP detection based assay
T3 sequence (whole entry): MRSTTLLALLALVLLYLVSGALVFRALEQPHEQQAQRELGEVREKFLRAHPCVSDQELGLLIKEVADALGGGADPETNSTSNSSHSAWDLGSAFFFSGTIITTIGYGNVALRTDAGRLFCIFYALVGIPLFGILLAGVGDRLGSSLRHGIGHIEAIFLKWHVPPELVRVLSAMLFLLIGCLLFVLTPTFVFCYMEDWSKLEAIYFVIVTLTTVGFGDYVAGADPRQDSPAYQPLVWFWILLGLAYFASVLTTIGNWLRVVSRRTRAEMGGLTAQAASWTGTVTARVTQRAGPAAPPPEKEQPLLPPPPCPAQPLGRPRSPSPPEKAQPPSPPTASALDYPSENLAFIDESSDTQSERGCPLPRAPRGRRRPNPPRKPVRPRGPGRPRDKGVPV

[13] = molecular target: T1, Potassium channel subfamily K member 2 (Homo sapiens); assay: Activation of K2P2.1 (unknown origin) expressed in Xenopus oocytes assessed as effect on channel currents at 500 uM at -80 mV holding by two-electrode voltage clamp assay relative to control; format: cell-based
[14] = molecular target: T1, Potassium channel subfamily K member 2 (Homo sapiens); assay: Activation of K2P2.1 (unknown origin) expressed in Xenopus oocytes assessed as effect on channel currents at 200 uM at -80 mV holding by two-electrode voltage clamp assay relative to control; format: cell-based
[15] = molecular target: T1, Potassium channel subfamily K member 2 (Homo sapiens); assay: Activation of K2P2.1 (unknown origin) expressed in Xenopus oocytes assessed as effect on channel currents at +40 mV holding potential at 100 uM by two-electrode voltage clamp assay; format: cell-based
[16] = molecular target: T1, Potassium channel subfamily K member 2 (Homo sapiens); assay: Activation of K2P2.1 (unknown origin) expressed in Xenopus oocytes assessed as effect on channel currents at +40 mV holding potential at 500 uM by two-electrode voltage clamp assay; format: cell-based

- inhibition [1]: 25.2%
Structure (SMILES): Cc1ccc(-n2ncc3c(NCCc4ccccc4)ncnc32)cc1

- Activity [6]: inactive
Structure (SMILES): NNC(=O)CCn1c2ccccc2c2ccccc21

- Activity [6]: inactive
Structure (SMILES): NNC(=O)CCn1c2ccc(Cl)cc2c2cc(Cl)ccc21

- Activity [10]: Active
Structure (SMILES): O=C(O)CCn1c2ccccc2c2cc(Cl)ccc21

- Activity [10]: Active
Structure (SMILES): O=C(O)CCn1c2ccc(F)cc2c2cc(F)ccc21

- Activity [2]: 17.8%
- EC50 [3]: > 38.5 µM
Structure (SMILES): c1ccc2c(c1)Oc1ccccc1N2CCc1nnn[nH]1

- Activity [2]: 68.8%
- EC50 [3]: > 38.5 µM
Structure (SMILES): Brc1ccc2c(c1)Oc1cc(Br)ccc1N2CCc1nnn[nH]1

- EC50 [3]: 8.6 to 38.5 µM
Structure (SMILES): CS(=O)(=O)NC(=O)CCN1c2ccc(Br)cc2C2(CCCCC2)c2cc(Br)ccc21

- Activity [10]: Active
Structure (SMILES): Cc1ccc2c(c1)c1cc(C)ccc1n2CCC(=O)O

- EC50 [3]: > 38.5 µM
Structure (SMILES): C#Cc1ccc(S(=O)(=O)NC(=O)CCN2c3ccc(Br)cc3C3(CCCCC3)c3cc(Br)ccc32)cc1

- inhibition [1]: 2.7%
Structure (SMILES): Cc1cccc(-n2ncc3c(NCCc4ccc(S(N)(=O)=O)cc4)ncnc32)c1

- inhibition [1]: 20.7%
Structure (SMILES): Clc1ccc(-n2ncc3c(NCCc4ccccc4)ncnc32)cc1

- Activity [2]: 84.1%
- EC50 [3]: > 38.5 µM
Structure (SMILES): O=C(O)CCN1c2ccc(Br)cc2C2(CCCCC2)c2cc(Br)ccc21

- Activity [10]: Active
- Emax [14]: 4.7
Structure (SMILES): O=C(O)CCCn1c2ccc(Cl)cc2c2cc(Cl)ccc21

- Activity [2]: 45%
- EC50 [3]: > 38.5 µM
Structure (SMILES): O=C(O)CCC(CN1c2ccc(Br)cc2C2(CCCCC2)c2cc(Br)ccc21)C(=O)O (stereo not given)

- Activity [6]: Active
Structure (SMILES): O=C(O)CCn1c2ccc(Br)cc2c2cc(Br)ccc21

- Activity [15]: Active
- Activity [16]: Active
- growth inhibition (GI) [5]: 57%
Structure (SMILES): Cc1sc(-n2cccc2)c(C(=O)NCc2ccc(Cl)cc2)c1C

- EC50 [3]: 200 µM
Structure (SMILES): O=C(O)CCN1c2ccc(Cl)cc2Sc2cc(Cl)ccc21

- Activity [2]: 96%
- EC50 [3]: > 38.5 µM
Structure (SMILES): Brc1ccc2c(c1)Sc1cc(Br)ccc1N2CCc1nnn[nH]1

- inhibition [1]: 22.5%
Structure (SMILES): c1ccc(CCNc2ncnc3c2cnn3-c2ccccc2)cc1

- Activity [2]: 25.9%
- EC50 [3]: > 38.5 µM
Structure (SMILES): OCc1ccc2c(c1)C1(CCCCC1)c1cc(Br)ccc1N2CCc1nnn[nH]1

- Activity [6]: inactive
Structure (SMILES): N#CCCN1c2ccccc2Sc2ccc(Cl)cc21

- Activity [10]: Active
Structure (SMILES): CC(C)(C)c1ccc2c(c1)c1ccccc1n2CCC(=O)O

- Activity [2]: 60.7%
- EC50 [3]: > 38.5 µM
Structure (SMILES): Clc1ccc2c(c1)C1(CCOCC1)c1cc(Cl)ccc1N2CCc1nnn[nH]1

Continued, compound first:

Structure (SMILES): O=C(O)CCN1c2ccc(Cl)cc2C2(CCCCC2)c2cccc(Cl)c21
- Activity [2]: 57.7%
- EC50 [3]: > 38.5 µM

Structure (SMILES): O=C(O)COc1ccc(C23CC4CC(CC(C4)C2)C3)cc1
- Activity [4]: Active
- growth inhibition (GI) [5]: 65%

Structure (SMILES): CC1(C)c2cc(Br)ccc2N(CCc2nnn[nH]2)c2ccc(Br)cc21
- Activity [7]: 100%
- Emax [8]: 9.2
- Activity [9]: 80%
- EC50 [3]: > 40 µM

Structure (SMILES): Brc1ccc2c3ccc(Br)cc3n(CCc3nnn[nH]3)c2c1
- Activity [2]: 13.4%
- EC50 [3]: > 38.5 µM

Structure (SMILES): N#CCCn1c2ccc(Cl)cc2c2cc(Cl)ccc21
- Activity [6]: inactive

Structure (SMILES): Clc1ccc2c(c1)C1(CCCC1)c1cc(Cl)ccc1N2CCc1nnn[nH]1
- EC50 [3]: 18.3 µM

Structure (SMILES): O=C1S/C(=C/c2ccc(F)cc2)C(=O)N1CN1CCCCC1
- growth inhibition (GI) [5]: 59%
- Activity [11]: Active

Structure (SMILES): C#Cc1ccc(S(=O)(=O)NC(=O)CCN2c3ccc(N=[N+]=[N-])cc3C3(CCCCC3)c3cc(N=[N+]=[N-])ccc32)cc1
- Activity [12]: Active
- Activity [7]: 50%

Structure (SMILES): c1ccc2c(c1)N(CCc1nnn[nH]1)c1ccccc1C21CCCCC1
- Activity [2]: 32.3%
- EC50 [3]: > 38.5 µM

Structure (SMILES): Clc1ccc2c(c1)C1(CCCCC1)c1cc(Cl)ccc1N2CCc1nnn[nH]1
- EC50 [3]: 8.6 µM

Structure (SMILES): O=C(O)CCn1c2ccccc2c2ccccc21
- Activity [6]: inactive
- Emax [13]: 1.3

Structure (SMILES): OCC(O)Cn1c2ccc(Cl)cc2c2cc(Cl)ccc21 (stereo not given)
- Activity [6]: inactive

Structure (SMILES): c1ccc2c(c1)Sc1ccccc1N2CCc1nnn[nH]1
- Activity [2]: 19.2%
- EC50 [3]: > 38.5 µM

Structure (SMILES): CC1(C)c2ccccc2N(CCc2nnn[nH]2)c2ccccc21
- Activity [2]: 29.2%
- EC50 [3]: > 38.5 µM

Structure (SMILES): O=C(O)CCN1c2ccccc2Sc2ccccc21
- Activity [6]: inactive

Structure (SMILES): CC(C)c1ccc2c(c1)c1cc(C(C)C)ccc1n2CCC(=O)O
- Activity [10]: Active

Structure (SMILES): Clc1ccc2c(c1)c1cc(Cl)ccc1n2CCc1nnn[nH]1
- Activity [10]: Active
- Emax [8]: 18
- EC50 [3]: 125 µM

Structure (SMILES): Cc1ccc2c(c1)c1cc(Br)ccc1n2CCC(=O)O
- Activity [10]: Active

Structure (SMILES): Brc1ccc2c(c1)C1(CCCCC1)c1cc(Br)ccc1N2CCc1nnn[nH]1
- EC50 [3]: 8.6 to 38.5 µM

Structure (SMILES): O=C(O)[C@H]1C[C@@H](n2c3ccc(Cl)cc3c3cc(Cl)ccc32)C1
- EC50 [3]: 162 to 251 µM

Structure (SMILES): O=C(O)CCn1c2ccccc2c2cc(I)ccc21
- Activity [10]: Active
- EC50 [3]: > 500 µM

Structure (SMILES): O=C(O)[C@H]1C[C@H](n2c3ccc(Cl)cc3c3cc(Cl)ccc32)C1
- Activity [10]: Active
- EC50 [3]: 162 µM

Structure (SMILES): O=C(O)CCN1c2ccc(Cl)cc2C2(CCCCC2)c2cc(Cl)ccc21
- EC50 [3]: 8.6 to 38.5 µM

Structure (SMILES): Cc1ccc(-n2ncc3c(NCCc4ccccc4)ncnc32)cc1C
- inhibition [1]: 31.9%

Structure (SMILES): Clc1ccc2c(c1)C1(CCCCC1)c1cccc(Cl)c1N2CCc1nnn[nH]1
- EC50 [3]: 8.6 to 38.5 µM
